System: HeLa cell
Assay: HeLa cell apoptosis assay, Cell Death Detection ELISA plus kit
Assay type: cell-based
Design: unit not given here
Experimental: The following exemplary compounds were evaluated for their effect on a HeLa cell apoptosis assay using the Cell Death Detection ELISA plus kit from Roche Applied Science.

Compound	average (HeLa apoptosis assay) (dose 0.5)	average (HeLa apoptosis assay) (dose 2.5)	average (HeLa apoptosis assay) (dose 10)	average (HeLa apoptosis assay) (dose 25)
Oc1ccc(/C=C/c2cc(O)cc(O)c2)cc1 [Resveratol]	0.83	0.84	1.01	0.56
Cn1c2c(c3cc(Cl)ccc31)C(C(N)=O)CCC2 (centres unmarked) [Compound 5]	1.00	0.97	1.07	0.91

Reference: patent US20080214800A1, “SIRT INHIBITORS THAT BIND TO NAD” (Elixir Pharmaceuticals, Inc., priority 2005, published 2008)
